Assay results published in ChEMBL document CHEMBL1151411, “Plant Anticancer Agents. XIII. Constituents of Austrocedrus chilensis” (1983).
Converted amounts (≈) assume the structure as drawn.

Tested on: KB
Assay: Cytotoxicity against human KB cells
Assay type: functional
Conditions: read-out: ED50 (the source's name)

SMILES	EC50 [µg/mL]
CC(C)c1cc2c(cc1O)[C@@]1(CO)CCCC(C)(C)[C@@H]1CC2 [PISIFEROL]	100 (≈ 331 µM)
CC(C)C1=CC2(O)CC[C@H]3C(C)(C)CCC[C@]3(CO)C2=CC1=O (some centres not stated)	16 (≈ 50.2 µM)
